From patent US10738068B2, “Organic/inorganic hybrid nanoparticulates made from iron carboxylates” (CENTRE NATIONAL DE LA RECHERCHE SCIENTIFIQUE—CNRS, priority 2007, dated 2020)
≈ marks a conversion by molar mass, not a printed value. Read-outs that look alike come from different tables or passages of the source.

Tests used:
[1] = cited from earlier work
[2] = Solubility of busulfan in various solvents; type: physicochemical
From the text: The solvents chosen for the impregnation are those in which busulfan has appreciable solubility (acetone, acetonitrile, chloroform, dichloromethane, dimethyl carbonate) (Table 18).

Nc1ccn([C@@H]2O[C@H](CO)[C@@H](O)C2(F)F)c(=O)n1 [Gemcitabine]
Solubility in water [1]: water soluble

CC(=O)O[C@H]1C(=O)[C@@]2(C)[C@H]([C@H](OC(=O)c3ccccc3)[C@]3(O)C[C@H](OC(=O)[C@H](O)[C@@H](NC(=O)c4ccccc4)c4ccccc4)C(C)=C1C3(C)C)[C@]1(OC(C)=O)CO[C@@H]1C[C@@H]2O [Paclitaxel]
Solubility in ethanol and in DMSO ([1]; ethanol, DMSO): about 50 g/L

NC(N)=O [Urea]
Solubility in water ([1]; 20° C.): 1080 mg/mL (≈ 18000 mM)

CS(=O)(=O)OCCCCOS(C)(=O)=O [busulfan, 1,4-butanediol dimethylsulfonate]
Busulfan solubility ([2]; Chloroform): 8 mg/mL | Busulfan solubility ([2]; Ethanol): <<<4 mg/ml | Busulfan solubility ([2]; Ether): <<<4 mg/ml | Busulfan solubility ([2]; Hexane): <<<4 mg/ml | Busulfan solubility ([2]; Methanol): <<<4 mg/ml | Busulfan solubility ([2]; Tetrahydrofuran): ~5 mg/mL | Busulfan solubility ([2]; Toluene): ~4 mg/mL
